From BindingDB's records for doi:10.1016/0960-894X(95)00530-0 (1995)

Target: Gastrin/cholecystokinin type B receptor (Cavia porcellus)
Test: Displacement of [125I]-BH CCK-8S from Cholecystokinin type B receptor in guinea pig cortex

IC50 [nM] | Compound
880 | Cc1cccc(NC(=O)NC2N=C(N3CCNCC3)c3ccccc3N(C)C2=O)c1 (centres undefined) [1-(1-Methyl-2-oxo-5-piperazin-1-yl-2,3-dihydro-1H-benzo[e][1,4]diazepin-3-yl)-3-m-tolyl-urea]
12 | CCCN1C(=O)C(NC(=O)Nc2cccc(C(F)(F)F)c2)N=C(N2CCN(C)CC2)c2ccccc21 (centres undefined) [1-[5-(4-Methyl-piperazin-1-yl)-2-oxo-1-propyl-2,3-dihydro-1H-benzo[e][1,4]diazepin-3-yl]-3-(3-trifluoromethyl-phenyl)-urea]
> 3000 | Cc1cccc(NC(=O)NC2N=C(N3CCN(C(=O)OC(C)(C)C)CC3)c3ccccc3N(C)C2=O)c1 (centres undefined) [4-[1-Methyl-2-oxo-3-(3-m-tolyl-ureido)-2,3-dihydro-1H-benzo[e][1,4]diazepin-5-yl]-piperazine-1-carboxylic acid tert-butyl ester]

Compound | IC50 [nM]
Cc1cccc(NC(=O)N[C@@H]2N=C(c3ccccc3)c3ccccc3N3C[C@H](C)N=C23)c1 [1-((2S,4R)-2-Methyl-6-phenyl-2,4-dihydro-1H-3,5,10b-triaza-benzo[e]azulen-4-yl)-3-m-tolyl-urea] | 1.8
